Data taken from article PMC6753678, “Fueling Open Innovation for Malaria Transmission-Blocking Drugs: Hundreds of Molecules Targeting Early Parasite Mosquito Stages” (Frontiers in Microbiology, 2019).
Read-outs that look alike come from different tables or passages of the source.

Experiments:
HepG2 cells [1] = assay: HepG2 cytotoxicity assay
How it was run: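 Percent inhibition derived from fluorescent viability readout, normalised to DMSO (negative) and 50 μM doxorubicin (positive). Compound incubation lasted 48 h at 37°C, 5% CO2, with 2,500 HepG2 cells/well in MEM plus 10% FBS and 1% NEAA.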

[2] = system: P. falciparum female gametocytes; assay: P. falciparum female gametogenesis assay (Pf FGAA); conditions: 1: YES; 0: NO
[3] = system: P. falciparum late stage (stages IV-V) gametocytes; parameters: method as in Almela et al 2016; conditions: ref Almela et al 2016, read-out: Pf GCT ATP IC50, cited from earlier work
[4] = system: P. falciparum late stage (stages IV-V) gametocytes; assay: P. falciparum late stage gametocyte ATP depletion assay (Pf GC-ATP); conditions: 1: YES; 0: NO
HepG2 cells [5] = conditions: cited from earlier work
[6] = system: P. falciparum female gametocytes; parameters: method as in Miguel-Blanco et al 2017; conditions: ref Miguel-Blanco et al 2017, read-out: Pf FGAA IC50, cited from earlier work
[7] = HepG2 cytotoxicity unified across the three screens
[8] = value reported with the Pf FGAA screen, ref Miguel-Blanco et al 2017
[9] = value reported with the Pf GCT ATP screen, ref Almela et al 2016

Row | Structure (SMILES) | Unified cytotox (HepG2 cells [1]; [7]) [µM] | Is compound selective in assay? Pf FGAA active? [2] | IC50 ([3]; TCAMS screen comparison) [nM] | Is compound selective in assay? Pf GC-ATP active? [4] | HepG2 cytoxicity (HepG2 cells [5]; [8]) [µM] | HepG2 cytoxicity (HepG2 cells [5]; [9]) [µM] | IC50 ([6]; TCAMS screen comparison) [nM] | Unified cytotox (HepG2 cells [1]; HepG2 values of the three screens unified) [µM] | IC50 [3] [nM] | HepG2 cytoxicity (Pf GCT ATP screen) (HepG2 cells [5]; HepG2, ref Almela et al 2016) [µM] | HepG2 cytoxicity (Pf FGAA screen) (HepG2 cells [5]; HepG2, ref Miguel-Blanco et al 2017) [µM] | IC50 [6] [nM]
1 | CCCCCCCN1CC[C@@H](CCCc2ccnc3ccc(OCCN4CCNCC4)cc23)[C@@H](CC)C1.Cl [TCMDC-139817] | 5.82 | 0 (0: NO) | 570 | 1 (1: YES) | 4.90 | 6.75 | 1860 |  |  |  |  | 
2 | COc1ccc(Nc2nccc(-c3ccc4ccnc(NCCCCN)c4c3)n2)cc1 [TCMDC-136642] | 14.29 | 0 (0: NO) | 330 | 1 (1: YES) | 14.29 | >25 | 1510 |  |  |  |  | 
3 | CN1CCN(CCCN(Cc2cccc(-c3ccc(CNC4CCCC4)cc3)c2)C(=O)/C=C/c2ccccc2)CC1.O=C(O)C(F)(F)F [TCMDC-140544] | 7.04 | 0 (0: NO) | 740 | 0 (0: NO) | 7.70 | 6.39 | 1360 |  |  |  |  | 
4 | Fc1ccc(NC(S)=NN=Cc2ccccn2)cc1 [TCMDC-125521] | 100.00 | 1 (1: YES) | 120 | 1 (1: YES) | >100 | 23.35 | 27.1 |  |  |  |  | 
5 | CC(C)(C)c1ccc(-c2nc3c(ccc4nc(N)nc(N)c43)[nH]2)cc1.Cl [TCMDC-137984] | 2.98 | 1 (1: YES) | 210 | 1 (1: YES) | 2.12 | 3.85 | 260 |  |  |  |  | 
6 | CCOc1ccc2nc3cc(NC(=O)c4ccco4)ccc3c(N)c2c1 [TCMDC-125004] | 17.72 | 0 (0: NO) | 190 | 1 (1: YES) | 25.15 | 10.3 | 4550 |  |  |  |  | 
7 | NCc1ccc(CNCc2cccc(-c3ccc(-c4nc5cc(C(F)(F)F)ccc5[nH]4)cc3)c2)cc1.O=C(O)C(F)(F)F [TCMDC-132811] | 19.47 | 1 (1: YES) | 860 | 1 (1: YES) | 14.65 | 24.3 | 830 |  |  |  |  | 
8 | C[C@H](Cc1ccc(C[C@@H](C)NC[C@H](O)c2cccc(Cl)c2)cc1)NC[C@H](O)COc1ccccc1.Cl [TCMDC-131549] | 4.94 | 0 (0: NO) | 920 | 0 (0: NO) | 5.19 | 4.7 | 1390 |  |  |  |  | 
9 | CC(C)NCc1ccc(OCc2cccc(COc3ccc(CNC(C)C)cc3I)c2)c(I)c1.Cl [TCMDC-137259] | 3.27 | 0 (0: NO) | 210 | 1 (1: YES) | 1.64 | 4.9 | 1320 |  |  |  |  | 
10 | COc1c(C2CCN(CCN3CCC(CNC(=O)c4ccc(-c5ccc(C#N)cc5)cc4)CC3)CC2)ccc2c1CCCC2 [TCMDC-138859] | 3.36 | 0 (0: NO) | 1170 | 0 (0: NO) | 3.43 | 3.3 | 1460 |  |  |  |  | 
11 | COc1c(OC)c(OC)c2ccccc2c1CNCCCCCCNCc1c(OC)c(OC)c(OC)c2ccccc12.Cl [TCMDC-137827] | 3.08 | 0 (0: NO) | 1150 | 0 (0: NO) | 2.95 | 3.2 | 1670 |  |  |  |  | 
12 | CCC(CSC1CCCCC1)N(C)CCN(C)C(CC)CSC1CCCCC1.Cl (stereo not drawn) [TCMDC-131456] | 0.47 | 0 (0: NO) | 1400 | 0 (0: NO) | 0.0654 | 0.87 | 1250 |  |  |  |  | 
13 | CS(=O)(=O)O.FC(F)(F)COc1ccc2ccccc2c1CNCCCCCCNCc1c(OCC(F)(F)F)ccc2ccccc12 [TCMDC-137816] | 2.44 | 0 (0: NO) | 370 | 0 (0: NO) | 1.84 | 3.04 | 1090 |  |  |  |  | 
14 | C[C@H](Cc1ccc(Oc2ccc(C[C@@H](C)NC[C@H](O)c3cccc(Cl)c3)cc2)cc1)NC[C@H](O)c1cccc(Cl)c1.Cl [TCMDC-131560] | 1.98 | 0 (0: NO) | 270 | 0 (0: NO) | 2.04 | 1.91 | 720 |  |  |  |  | 
15 | COc1cccc(OC)c1CN1CCC(N(C)CCCCCCCCCN2CCC(OC(=O)Nc3ccccc3-c3ccccc3)CC2)CC1 [TCMDC-134690] | 1.91 | 0 (0: NO) | 260 | 0 (0: NO) | 1.91 | <1.56 | 1310 |  |  |  |  | 
16 | CCCCCCCCN1CCN(CCCCCCNc2c3ccccc3nc3ccccc23)CC1.Cl [TCMDC-138015] | 3.23 | 0 (0: NO) | 250 | 1 (1: YES) | 3.35 | 3.1 | 640 |  |  |  |  | 
17 | Cl.N=C(NCCCCC1CCCCC1)c1cccc(C(=N)NCCCCC2CCCCC2)n1 [TCMDC-137452] | 1.71 | 0 (0: NO) | 220 | 0 (0: NO) | 1.82 | 1.6 | 1050 |  |  |  |  | 
18 | COc1ccc(OC)c(-c2cccc(-c3cccc(NC(=O)c4ccc([N+](=O)[O-])o4)c3)n2)c1 [TCMDC-124799] | 4.89 | 0 (0: NO) | 780 | 0 (0: NO) | 3.63 | 6.15 | 960 |  |  |  |  | 
19 | CCn1c(Sc2ccc([N+](=O)[O-])c(C#N)c2)nnc1-c1cccc(Cl)c1 [TCMDC-135234] | 18.80 | 1 (1: YES) | 3040 | 0 (0: NO) | 18.80 | >25 | 1340 |  |  |  |  | 
20 | COc1cc2ccccc2c(CNCCCCCCNCc2c(OC)c(OC)cc3ccccc23)c1OC.CS(=O)(=O)O [TCMDC-137795] | 4.66 | 0 (0: NO) | 1050 | 0 (0: NO) | 4.62 | 4.7 | 670 |  |  |  |  | 
21 | COc1ccc(CNCCCCCCNCc2ccc(OC)c3ccccc23)c2ccccc12.Cl [TCMDC-137631] | 2.44 | 0 (0: NO) | 510 | 0 (0: NO) | 1.82 | 3.06 | 720 |  |  |  |  | 
22 | CCCCCCOc1ccc2ccccc2c1CNCCCCCCNCc1c(OCCCCCC)ccc2ccccc12.CS(=O)(=O)O [TCMDC-137963] | 2.85 | 0 (0: NO) | 480 | 0 (0: NO) | 2.40 | 3.3 | 1500 |  |  |  |  | 
23 | COc1cc2nc(N3CCC(CNCc4ccc(-c5ccc(C(F)(F)F)cc5)cc4)CC3)nc(N)c2cc1OC [TCMDC-138757] | 1.43 | 1 (1: YES) | 17.7 | 1 (1: YES) | 1.43 | <1.56 | 100 |  |  |  |  | 
24 | COc1c(CCNCCCCNCCc2cc(Cl)c3ccccc3c2OC)cc(Cl)c2ccccc12.CS(=O)(=O)O [TCMDC-137869] |  | 0 (0: NO) |  | 1 (1: YES) |  |  |  | 2.57 | 80 | 3.36 | 1.78 | 330
